# Measured values: ChEMBL document CHEMBL5370528, “Synthesis-accessibility-oriented design of c-Jun N-terminal kinase 1 inhibitor” (Eur J Med Chem, 2023)
# The source made the active and inactive calls. The rule behind the calls is not given here.
# Tests used:
# [1] = Clearance in Sprague-Dawley rat at 5 mg/kg, iv by HPLC-UV analysis; assay type: ADME, organism-based; settings: in vivo
# [2] = target: Mitogen-activated protein kinase 8 (Homo sapiens, UniProt P45983); test: Inhibition of N-terminal GST-tagged recombinant full length human JNK1 expressed in baculovirus infected Sf9 insect cells using IPTTPITTTYFFFKKK as substrate incubated for 60 mins in the presence of ATP by ADP-Glo reagent based luminescence assay
# Mus musculus [3] = test: Anti-fibrotic activity in bleomycin-induced C57BL/6 mouse model of pulmonary fibrosis assessed as protection against BLM-induced death at 75 mg/kg, po administered twice a day for 3 weeks relative to control; assay type: functional
# [4] = target: CDK4/Cyclin D3 (Homo sapiens) (UniProt P11802+P30281); test: Inhibition of CDK4/Cyclin D3 (unknown origin) at 1 uM preincubated for 10 mins followed by substrate addition and measured after 60 mins in the presence of ATP by ADP-Glo reagent based luminescence assay; assay type: protein-complex assay; settings: time 70.0 min
# [5] = Apparent volume of distribution in Sprague-Dawley rat at 5 mg/kg, iv by HPLC-UV analysis; assay type: ADME, organism-based; settings: in vivo, read-out: Vz
# [6] = target: Mitogen-activated protein kinase 1 (Homo sapiens) (UniProt P28482); test: Inhibition of ERK2 (unknown origin) at 1 uM preincubated for 10 mins followed by substrate addition and measured after 60 mins in the presence of ATP by ADP-Glo reagent based luminescence assay relative to control; settings: time 70.0 min
# [7] = Clearance in Sprague-Dawley rat at 75 mg/kg, po by HPLC-UV analysis; assay type: ADME, organism-based; settings: in vivo
# [8] = target: Dual specificity mitogen-activated protein kinase kinase 2 (Homo sapiens) (UniProt P36507); test: Inhibition of MAP2K2 (unknown origin) at 1 uM preincubated for 10 mins followed by substrate addition and measured after 60 mins in the presence of ATP by ADP-Glo reagent based luminescence assay relative to control; settings: time 70.0 min
# [9] = target: Mitogen-activated protein kinase 3 (Homo sapiens) (UniProt P27361); test: Inhibition of ERK1 (unknown origin) at 1 uM preincubated for 10 mins followed by substrate addition and measured after 60 mins in the presence of ATP by ADP-Glo reagent based luminescence assay relative to control; settings: time 70.0 min
# Mus musculus [10] = test: Anti-fibrotic activity in bleomycin-induced C57BL/6 mouse model of pulmonary fibrosis assessed as alleviation of body weight loss at 25 to 75 mg/kg, po administered twice a day for 3 weeks; assay type: functional, organism-based; settings: dose 25-75 mg/kg
# [11] = Cmax in Sprague-Dawley rat at 5 mg/kg, iv by HPLC-UV analysis; assay type: ADME, organism-based; parameters: dose 5 mg/kg, route iv; settings: in vivo
# [12] = target: T1, Dual specificity mitogen-activated protein kinase kinase 4 (Homo sapiens) (UniProt P45985); test: Inhibition of MAP2K4 (unknown origin) at 1 uM preincubated for 10 mins followed by substrate addition and measured after 60 mins in the presence of ATP by ADP-Glo reagent based luminescence assay relative to control; settings: time 70.0 min
# T1 sequence (whole entry): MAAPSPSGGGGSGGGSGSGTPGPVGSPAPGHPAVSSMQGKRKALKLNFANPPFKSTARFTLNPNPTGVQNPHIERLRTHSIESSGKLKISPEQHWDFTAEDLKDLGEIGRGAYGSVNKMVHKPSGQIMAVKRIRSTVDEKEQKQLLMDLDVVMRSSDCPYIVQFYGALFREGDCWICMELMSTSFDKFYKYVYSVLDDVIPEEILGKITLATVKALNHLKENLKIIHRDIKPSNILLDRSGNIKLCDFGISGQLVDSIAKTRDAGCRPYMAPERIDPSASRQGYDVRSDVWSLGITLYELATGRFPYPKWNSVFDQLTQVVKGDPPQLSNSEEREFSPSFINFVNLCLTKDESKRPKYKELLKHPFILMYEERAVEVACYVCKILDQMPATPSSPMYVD
# [13] = target: c-Jun N-terminal kinase, JNK (Homo sapiens) (UniProt P45983+P53779+P45984); test: Inhibition of JNK in HFL1 cells assessed as inhibition of anisomycin-activated c-Jun phosphorylation preincubated for 1 hrs followed by anisomycin activation for 1 hrs by Western blot analysis; assay type: cell-based; settings: dose 2-50 µM, time 2.0 hrs
# Mus musculus [14] = test: Anti-fibrotic activity in bleomycin-induced C57BL/6 mouse model of pulmonary fibrosis assessed as increase in respiratory function by measuring tidal volume at 25 to 75 mg/kg, po administered twice a day for 3 weeks by spirometry analysis; assay type: functional, organism-based; settings: dose 25-75 mg/kg
# [15] = target: Cyclin-dependent kinase 2/cyclin E1 (Homo sapiens) (UniProt P24864+P24941); test: Inhibition of CDK2/Cyclin E1 (unknown origin) at 1 uM preincubated for 10 mins followed by substrate addition and measured after 60 mins in the presence of ATP by ADP-Glo reagent based luminescence assay relative to control; assay type: protein-complex assay; settings: time 70.0 min
# [16] = Half-life in Sprague-Dawley rat at 5 mg/kg, iv by HPLC-UV analysis; assay type: ADME, organism-based; settings: in vivo
# Mus musculus [17] = test: Anti-fibrotic activity in bleomycin-induced C57BL/6 mouse model of pulmonary fibrosis assessed as reduction in mortality rate at 25 mg/kg, po administered twice a day for 3 weeks (reference value: 43%); assay type: functional; parameters: scale not given: the % may be the effect or the level left
# [18] = target: T2, Dual specificity mitogen-activated protein kinase kinase 7 (Homo sapiens) (UniProt O14733); test: Inhibition of MAP2K7 (unknown origin) at 1 uM preincubated for 10 mins followed by substrate addition and measured after 60 mins in the presence of ATP by ADP-Glo reagent based luminescence assay relative to control; settings: time 70.0 min
# T2 sequence (whole entry): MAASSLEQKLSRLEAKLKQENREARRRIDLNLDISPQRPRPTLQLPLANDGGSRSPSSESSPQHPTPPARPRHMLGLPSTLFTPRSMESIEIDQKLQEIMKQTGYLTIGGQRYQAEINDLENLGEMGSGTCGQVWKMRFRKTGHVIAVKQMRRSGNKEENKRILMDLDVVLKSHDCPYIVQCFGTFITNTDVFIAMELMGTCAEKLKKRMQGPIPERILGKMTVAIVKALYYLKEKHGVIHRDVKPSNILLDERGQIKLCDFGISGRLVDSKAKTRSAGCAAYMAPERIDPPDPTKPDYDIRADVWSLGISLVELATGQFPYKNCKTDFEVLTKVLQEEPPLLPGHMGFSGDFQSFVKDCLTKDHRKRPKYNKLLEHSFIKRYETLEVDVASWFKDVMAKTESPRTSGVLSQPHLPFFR
# Mus musculus [19] = test: Anti-fibrotic activity in bleomycin-induced C57BL/6 mouse model of pulmonary fibrosis assessed as alleviation of alveolar wall thickening in lungs at 25 to 75 mg/kg, po administered twice a day for 3 weeks by H&E staining based analysis; assay type: functional, organism-based; settings: dose 25-75 mg/kg
# [20] = target: Dual specificity mitogen-activated protein kinase kinase 1 (Homo sapiens) (UniProt Q02750); test: Inhibition of MAP2K1 (unknown origin) at 1 uM preincubated for 10 mins followed by substrate addition and measured after 60 mins in the presence of ATP by ADP-Glo reagent based luminescence assay relative to control; settings: time 70.0 min
# Mus musculus [21] = test: Anti-fibrotic activity in bleomycin-induced C57BL/6 mouse model of pulmonary fibrosis assessed as reduction in collagen accumulation at 25 to 75 mg/kg, po administered twice a day for 3 weeks by Masson's trichome staining based analysis; assay type: functional, organism-based; settings: dose 25-75 mg/kg
# Mitogen-activated protein kinase 8, sequence (P45983 whole entry): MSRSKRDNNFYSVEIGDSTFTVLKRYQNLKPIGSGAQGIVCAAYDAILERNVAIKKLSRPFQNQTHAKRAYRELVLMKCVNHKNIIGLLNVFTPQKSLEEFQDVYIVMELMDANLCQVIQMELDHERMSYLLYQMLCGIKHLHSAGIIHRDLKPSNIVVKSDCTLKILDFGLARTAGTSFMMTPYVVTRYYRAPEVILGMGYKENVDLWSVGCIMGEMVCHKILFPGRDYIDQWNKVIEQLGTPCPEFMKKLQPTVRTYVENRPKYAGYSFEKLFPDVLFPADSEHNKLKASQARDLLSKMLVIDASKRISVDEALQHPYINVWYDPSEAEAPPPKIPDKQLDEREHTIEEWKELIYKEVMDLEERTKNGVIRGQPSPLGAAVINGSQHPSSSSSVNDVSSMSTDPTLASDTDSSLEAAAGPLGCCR
# Dual specificity mitogen-activated protein kinase kinase 2 (Homo sapiens), sequence (P36507 whole entry): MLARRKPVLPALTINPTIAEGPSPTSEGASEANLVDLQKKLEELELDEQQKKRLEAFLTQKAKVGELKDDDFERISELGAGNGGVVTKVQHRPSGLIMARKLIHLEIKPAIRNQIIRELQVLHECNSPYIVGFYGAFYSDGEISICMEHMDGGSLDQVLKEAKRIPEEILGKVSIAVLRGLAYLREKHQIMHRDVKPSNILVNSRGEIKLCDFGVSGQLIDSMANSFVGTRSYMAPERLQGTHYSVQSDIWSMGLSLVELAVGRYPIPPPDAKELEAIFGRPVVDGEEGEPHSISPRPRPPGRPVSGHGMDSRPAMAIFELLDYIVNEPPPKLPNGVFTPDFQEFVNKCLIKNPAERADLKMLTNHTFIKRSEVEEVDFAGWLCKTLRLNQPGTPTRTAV
# Mitogen-activated protein kinase 1 (Homo sapiens), sequence (P28482 whole entry): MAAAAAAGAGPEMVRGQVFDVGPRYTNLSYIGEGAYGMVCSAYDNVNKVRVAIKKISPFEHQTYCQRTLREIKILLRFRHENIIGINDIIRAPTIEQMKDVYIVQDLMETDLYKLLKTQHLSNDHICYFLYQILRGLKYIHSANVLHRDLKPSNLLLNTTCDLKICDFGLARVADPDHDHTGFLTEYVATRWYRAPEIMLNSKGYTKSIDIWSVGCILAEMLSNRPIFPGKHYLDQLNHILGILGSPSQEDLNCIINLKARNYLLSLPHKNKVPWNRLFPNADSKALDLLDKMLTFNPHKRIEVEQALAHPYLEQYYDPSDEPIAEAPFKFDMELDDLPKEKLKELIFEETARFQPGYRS
# Mitogen-activated protein kinase 3 (Homo sapiens), sequence (P27361 whole entry): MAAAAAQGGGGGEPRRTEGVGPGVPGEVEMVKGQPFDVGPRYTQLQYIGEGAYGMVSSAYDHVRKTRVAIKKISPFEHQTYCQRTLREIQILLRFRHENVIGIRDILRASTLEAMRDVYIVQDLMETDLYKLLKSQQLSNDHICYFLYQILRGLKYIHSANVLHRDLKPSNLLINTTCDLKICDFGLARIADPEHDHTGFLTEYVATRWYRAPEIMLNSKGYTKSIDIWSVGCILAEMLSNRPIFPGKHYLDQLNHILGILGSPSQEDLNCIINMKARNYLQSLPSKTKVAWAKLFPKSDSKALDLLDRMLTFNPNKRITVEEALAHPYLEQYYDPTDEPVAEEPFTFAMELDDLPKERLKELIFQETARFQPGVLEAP
# Dual specificity mitogen-activated protein kinase kinase 1 (Homo sapiens), sequence (Q02750 whole entry): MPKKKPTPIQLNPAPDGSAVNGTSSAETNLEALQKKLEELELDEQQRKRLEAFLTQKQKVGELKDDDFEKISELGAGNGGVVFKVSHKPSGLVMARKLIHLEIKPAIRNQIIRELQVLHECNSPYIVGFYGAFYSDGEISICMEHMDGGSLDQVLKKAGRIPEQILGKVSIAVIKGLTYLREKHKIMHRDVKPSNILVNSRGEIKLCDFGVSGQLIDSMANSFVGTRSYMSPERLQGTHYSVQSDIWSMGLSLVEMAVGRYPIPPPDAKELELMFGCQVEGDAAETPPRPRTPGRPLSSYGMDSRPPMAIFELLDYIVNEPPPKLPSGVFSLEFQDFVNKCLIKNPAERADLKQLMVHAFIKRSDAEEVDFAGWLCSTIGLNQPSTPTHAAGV
compound,measurement,setting,value
CC(C)(C)CNc1ncc(Br)c(Nc2ccccc2C(N)=O)n1,clearance,[1],131 mL/min/kg
same,IC50,[2],33.5 nM
same,Activity,Mus musculus [3],100%
same,inhibition,[4],41.9%
same,Vd,[5],20.3 L/kg
same,inhibition,[6],18.7%
same,CL/F,[7],860 mL/min/kg
same,inhibition,[8],4.96%
same,inhibition,[9],25.9%
same,Activity,Mus musculus [10],Active
same,Cmax,[11],453 ng/mL
same,inhibition,[12],93.8%
same,inhibition,[13],Dose-Dependent Effect
same,Activity,Mus musculus [14],Active
same,inhibition,[15],60.3%
same,half-life,[16],2.09 h
same,Activity,Mus musculus [17],14%
same,inhibition,[18],8.7%
same,Activity,Mus musculus [19],Active
same,inhibition,[20],2.35%
same,Activity,Mus musculus [21],Active
